{"source": "patent US8957228B2", "about": "“Macrolide compound having anticancer effect” (Tohoku University, priority 2010, dated 2015)", "key": {"[1]": {"system": "A549, H460 and A172 cell lines", "experiment": "Antiproliferative activity test (Alamar Blue, 72 hours), statements across cell lines", "assay_type": "cell-based, human", "settings": "result in words; for induction of cell death: no data are shown", "description": "(§1) Antiproliferative activities of exiguolide and its analogs shown in Examples were examined using A549 and H460 cell lines derived from lung cancer and an A172 cell line derived from human glioblastoma cells. Each cell line was maintained in an RPMI 1640 medium supplemented with 10% fetal bovine serum (in the cases of the H460 cell line and the A172 cell line) or in a DMEM medium supplemented with 10% fetal bovine serum (in the case of the A549 cell line). Cells in the proliferative phase were seeded in a 96-well plate in triplicate and were cultured for 72 hours in the presence of the compound at various concentrations. At the completion of the culture period, an Alamar Blue solution (Invitrogen Corporation) was added to each culture in an amount of 1/10 of that of the medium, followed by leaving to stand for 3 hours. The fluorescence intensity was measured with Fluoroskan Ascent (Thermo Fisher Scientific K.K.). […] The fluorescence intensities of experimental groups were determined as relative intensities to that of the control group and were plotted. The concentration of a compound for achieving the 50% growth inhibition (IC50) of each cancer cell line was calculated by a non-linear regression model of standard slope using the GraphPad Prism software."}, "[2]": {"system": "tumors induced by human lung cancer cell line A549", "experiment": "In vivo antitumor activity test, subcutaneous tumor in immunodeficient mice", "parameters": "species or system mice (BALB/cAJcl-nu/nu)", "settings": "printed 'in the H460 cell line', 0.2 mg/kg intraperitoneally once a day", "protocol": "(§2) Immunodeficient mice (BALB/cAJcl-nu/nu) were subcutaneously inoculated with human lung cancer cells (H460, A549, etc.). When the subcutaneous tumor volume reached approximately 200 mm^3, the mice were divided into an exiguolide administration group (n=2) and a control group (n=4) at random. The administration group was intraperitoneally administered with 0.2 mg/kg of exiguolide, and the control group with PBS (200 μL) and DMSO (5 to 10 μL), every day (once a day). […] The subcutaneous tumors were recognized from the body surface, and the change in tumor diameter was measured with a vernier caliper. […] After completion of the observation, the mice were euthanized with halothane. The tumors were extracted and were subjected to observation of the size, weight, and pathological findings.\n(§3) The results are shown in FIG. 8 (H460) and FIG. 9 (A549). In each graph, the vertical axis (relative volume) represents the relative values of the estimated tumor volume of each group to that on the day 0, where the estimated tumor volume is expressed using a major axis “a” and a minor axis “b” by (a×b^2)/2."}, "[3]": {"system": "tumors induced by human lung cancer cell line H460", "experiment": "In vivo antitumor activity test, subcutaneous tumor in immunodeficient mice", "parameters": "species or system mice (BALB/cAJcl-nu/nu)", "settings": "0.2 mg/kg intraperitoneally once a day, 15 days", "protocol": "as §2, §3"}, "[4]": {"system": "H460 cell line", "settings": "H460 exposed to 1 μM", "protocol": "The cell-cycle arrest activity of exiguolide was investigated. The H460 cell line was exposed to 1 μM of exiguolide, and the ratio of cells at each cell cycle phase was measured with a flow cytometer. The DNA staining reagent used was propidium iodide. The A549 cell line was exposed to exiguolide (0.01 to 5 μM) for 72 hours, and then the activity of a cell cycle regulator, Rb, was measured by Wester blotting."}, "[5]": {"system": "Hemicentrotus pulcherrimus", "settings": "Non Patent Literature 1; cited from earlier work"}, "[6]": {"system": "Rb phosphorylation in A549 cell line", "experiment": "Activity of cell cycle regulator Rb by Western blotting", "assay_type": "cell-based, human", "settings": "A549 exposed to 0.01 to 5 μM for 72 hours"}, "[7]": {"system": "A172 cell line derived from human glioblastoma cells", "experiment": "Antiproliferative activity test (Alamar Blue, 72 hours)", "assay_type": "cell-based", "settings": "read-out: IC50 (50% growth inhibition)", "description": "as §1"}, "[8]": {"system": "A549 cell line derived from lung cancer", "experiment": "Antiproliferative activity test (Alamar Blue, 72 hours)", "assay_type": "cell-based, human", "settings": "read-out: IC50 (50% growth inhibition)", "description": "as §1"}, "[9]": {"system": "H460 cell line derived from lung cancer", "experiment": "Antiproliferative activity test (Alamar Blue, 72 hours)", "assay_type": "cell-based, human", "settings": "read-out: IC50 (50% growth inhibition)", "description": "as §1"}, "[10]": {"system": "SK-OV-3 (human ovarian carcinoma)", "experiment": "Drug sensitivity test, panel of human cultured cancer cell lines (sulforhodamine B colorimetry)", "assay_type": "cell-based", "protocol": "(§4) The anticancer activity of exiguolide was examined by an in vitro drug sensitivity test using a panel of 39 human cultured cancer cell lines, by Professor Yamori, Molecular Pharmacology, Cancer Chemotherapy Center of Japanese Foundation for Cancer Research upon request.\n(§5) The test was performed by seeding seven lung cancer cell lines, six gastric cancer cell lines, five colon cancer cell lines, five ovarian cancer cell lines, six brain cancer cell lines, five breast cancer cell lines, two kidney cancer cell lines, two prostatic cancer cell lines, and one melanoma cell line, 39 cell lines in total, in a 96-well plate, adding a sample solution containing a predetermined concentration of exiguolide to each well on the following day, culturing the cell lines for two days, and measuring the cell growth by colorimetry with sulforhodamine B. The measurement results were input into a computer, and the sensitivity patterns (growth rate and finger print, described below) of each cell line on exiguolide were analyzed using three parameters, GI50, TGI, and LC50, as indices. The data were also subjected to analysis comparing with sensitivities on known compounds showing cell growth-inhibiting activities.\n(§6) The growth rate percentages were plotted with respect to drug concentrations (logarithm) for each cell line, and the growth rates (%) were summarized on each organ cancer (FIG. 3: dose-response curves). In each curve, the concentrations at the points at which the growth rates 50%, 0%, and -50% intersect horizontal lines correspond to log GI50, log TGI, and log LC50, respectively.\n(§7) The average of log GI50 values of all cell lines tested was determined. The difference between this average and log GI50 value of each cell line (e.g., how much the GI50 of each cell line is high or low relative to the average is shown as logarithmic value) was determined, and the results were drawn as a bar graph extending left or right from the center showing the average log GI50 value (scale: 0) to form finger prints (FIG. 4). A cell line having higher sensitivity is drawn as a longer bar extending to the right side."}, "[11]": {"system": "A549 (human lung adenocarcinoma)", "experiment": "Drug sensitivity test, panel of human cultured cancer cell lines (sulforhodamine B colorimetry)", "assay_type": "cell-based", "protocol": "as §4, §5, §6, §7"}, "[12]": {"system": "MKN74 (human gastric carcinoma)", "experiment": "Drug sensitivity test, panel of human cultured cancer cell lines (sulforhodamine B colorimetry)", "assay_type": "cell-based", "protocol": "as §4, §5, §6, §7"}, "[13]": {"system": "NCI-H460 (human lung large cell carcinoma)", "experiment": "Drug sensitivity test, panel of human cultured cancer cell lines (sulforhodamine B colorimetry)", "assay_type": "cell-based", "protocol": "as §4, §5, §6, §7"}, "[14]": {"system": "A549 cell line", "settings": "National Cancer Institute database; cited from earlier work"}, "[15]": {"system": "NCI-H460 cell line", "settings": "National Cancer Institute database; cited from earlier work"}, "[16]": {"system": "SK-OV-3 cell line", "settings": "National Cancer Institute database; cited from earlier work"}, "[17]": {"settings": "concentration inducing 50% cell death, read-out: LC50 (the source's name)"}, "[18]": {"settings": "concentration inducing 50% growth inhibition, two days culture"}}}
{"smiles": "COC(=O)C/C(C)=C/C=C\\C=C\\C1OC(=O)CC2C[C@H](O)C[C@H](CC3CCC[C@H](C[C@@H](C)/C=C/[C@@H]1C)O3)O2", "note": "(stereo partly shown) [analog 1]", "values": [{"measurement": "cell growth-inhibiting effect", "setting": "[1]", "value": "remarkable cell growth-inhibiting effects"}, {"measurement": "induction of cell death", "setting": "[1]", "value": "active induction of cell death was observed"}]}
{"smiles": "COC(=O)C/C(C)=C/C=C\\C=C\\C1OC(=O)CC2CC(=O)C[C@H](CC3CCC[C@H](C[C@@H](C)/C=C/[C@@H]1C)O3)O2", "note": "(stereo partly shown) [analog 7]", "values": [{"measurement": "cell growth-inhibiting effect", "setting": "[1]", "value": "remarkable cell growth-inhibiting effects"}, {"measurement": "induction of cell death", "setting": "[1]", "value": "active induction of cell death was observed"}]}
{"smiles": "COC(=O)/C=C1\\C[C@H]2CC(=O)O[C@@H](/C=C/C=C\\C=C(/C)CC(=O)OC)[C@@H](C)/C=C/[C@H](C)C[C@H]3CCC[C@@H](C[C@@H](C1)O2)O3", "note": "[exiguolide, (−)exiguolide]", "values": [{"measurement": "relative tumor weight ratio (administration group/control group) at the end of the experiment", "setting": "[2]; second of two ratios", "value": 0.33}, {"measurement": "relative tumor weight of administration group at the end of the experiment", "setting": "[2]; second of two values", "value": 1.17}, {"measurement": "relative tumor weight of administration group at the end of the experiment", "setting": "[3]", "value": 3.35}, {"measurement": "relative tumor weight ratio (administration group/control group) at the end of the experiment", "setting": "[3]", "value": 0.17}, {"measurement": "ratio of cells at G1 phase in cell cycle", "setting": "[4]", "value": "consistently increased the ratio of the G1 phase in cell cycle"}, {"measurement": "activity of inhibiting maturation of ova and spermatozoa", "setting": "[5]", "value": "activity of inhibiting maturation of ova and spermatozoa"}, {"measurement": "phosphorylation of G1-regulating protein Rb", "setting": "[6]", "value": "decreased with an increase in concentration of exiguolide"}, {"measurement": "IC50", "setting": "[7]", "value": 460, "unit": "nM"}, {"measurement": "IC50", "setting": "[8]", "value": 590, "unit": "nM"}, {"measurement": "IC50", "setting": "[9]", "value": 280, "unit": "nM"}, {"measurement": "CC50", "setting": "[10]; [17]", "value": "> 100000", "unit": "nM"}, {"measurement": "GI50", "setting": "[10]; [18]", "value": 700, "unit": "nM"}, {"measurement": "Log GI50", "setting": "[10]; [18]", "value": "−6.15"}, {"measurement": "CC50", "setting": "[11]; [17]", "value": "> 100000", "unit": "nM"}, {"measurement": "GI50", "setting": "[11]; [18]", "value": 650, "unit": "nM"}, {"measurement": "Log GI50", "setting": "[11]; [18]", "value": "−6.19"}, {"measurement": "CC50", "setting": "[12]; [17]", "value": "> 100000", "unit": "nM"}, {"measurement": "GI50", "setting": "[12]; [18]", "value": 690, "unit": "nM"}, {"measurement": "Log GI50", "setting": "[12]; [18]", "value": "−6.16"}, {"measurement": "LC50", "setting": "[13]; concentration inducing 50% cell death", "value": "> 100000", "unit": "nM"}, {"measurement": "GI50", "setting": "[13]; [18]", "value": 10, "unit": "nM"}, {"measurement": "Log GI50", "setting": "[13]; [18]", "value": "−8.00"}]}
{"smiles": "CCC/C=C/C=C/C(=O)O[C@H]1/C(=C/C(=O)OC)C[C@H]2C[C@H]([C@@H](C)O)OC(=O)C[C@H](O)C[C@@H]3C[C@H](OC(C)=O)C(C)(C)[C@](O)(C[C@@H]4C/C(=C/C(=O)OC)C[C@H](/C=C/C(C)(C)[C@]1(O)O2)O4)O3", "note": "[bryostatin 1]", "values": [{"measurement": "antiproliferative activity (log value compared with Log GI50)", "setting": "[14]", "value": "−5.4"}, {"measurement": "antiproliferative activity (log value compared with Log GI50)", "setting": "[15]", "value": "−5.6"}, {"measurement": "antiproliferative activity (log value compared with Log GI50)", "setting": "[16]", "value": "−5.3"}]}
{"smiles": "CCCCC=C/C=C/C1OC(=O)CC2C[C@H](O)C[C@H](CC3CCC[C@H](C[C@@H](C)/C=C/[C@@H]1C)O3)O2", "note": "(stereo partly shown) [analog 4]", "values": [{"measurement": "cell growth-inhibiting effect", "setting": "[1]", "value": "remarkable cell growth-inhibiting effects"}, {"measurement": "induction of cell death", "setting": "[1]", "value": "active induction of cell death was observed"}]}
